The target of data set [1] is T1, Leucine-rich repeat serine/threonine-protein kinase 2 (Homo sapiens, UniProt Q5S007, G2019S). The data set is described as follows: Inhibition of recombinant N-terminal GST-tagged human G2019S LRRK2 expressed in Sf9 insect cells using H-RLGAWRFTTLRRARQGNTKQR-OH peptide as substrate.
Data set [2] addresses T2, Leucine-rich repeat serine/threonine-protein kinase 2 (Homo sapiens, UniProt Q5S007). The data set is described as follows: Inhibition of recombinant N-terminal GST-tagged human LRRK2 expressed in Sf9 insect cells using H-RLGAWRFTTLRRARQGNTKQR-OH peptide as substrate.
Data set [3] deals with T2, Leucine-rich repeat serine/threonine-protein kinase 2. The data set is described as follows: Inhibition of human LRRK2 measured after 60 mins by TR-FRET assay. In general terms: TR-FRET usually uses a lanthanide donor and a delayed reading to cut background.
In data set [4] the target is T1, Leucine-rich repeat serine/threonine-protein kinase 2. The data set is described as follows: Inhibition of human LRRK2 G2019S mutant measured after 60 mins by TR-FRET assay.
Data set [5] is described as follows: Half life in CD-1 mouse at 1 mg/kg, iv. In kind it is ADME, organism-based. The following applies: in vivo.
Data set [6] can be described thus: Oral bioavailability in CD-1 mouse at 5 mg/kg. Type of data set: ADME, organism-based. The following applies: in vivo.
Data set [7] in a line: Half life in rat. In kind it is ADME. The following applies: in vivo.
Data set [8] is described as follows: Oral bioavailability in rat. In kind it is ADME, organism-based. The following applies: in vivo.
In data set [9] the target is T1, Leucine-rich repeat serine/threonine-protein kinase 2. The data set is described as follows: Inhibition of LRRK2 G2019S mutant (unknown origin).
The subject of data set [10] is von Hippel-Lindau disease tumor suppressor/Leucine-rich repeat serine/threonine-protein kinase 2 (Homo sapiens), Q5S007+P40337 [G2019S]. The data set is described as follows: PROTAC activity at VHL/LRRK2 G2019S mutant in human PBMC cells assessed as induction of degradation by measuring half life measured after 24 hrs by Western blot analysis. In kind it is cell-based. (In general: In western blotting, separated proteins are transferred to a membrane and probed.)

Data set [11] concerns the target T3, von Hippel-Lindau disease tumor suppressor/Leucine-rich repeat serine/threonine-protein kinase 2 (Homo sapiens) (UniProt Q5S007+P40337). The data set is described as follows: PROTAC activity at VHL/LRRK2 in human PBMC cells assessed as induction of degradation by measuring half life measured after 24 hrs by Western blot analysis. Type of data set: cell-based.

Data set [12] addresses T3, von Hippel-Lindau disease tumor suppressor/Leucine-rich repeat serine/threonine-protein kinase 2 (Homo sapiens). The data set is described as follows: PROTAC activity at VHL/LRRK2 in human PBMC cells assessed as reduction of protein degradation measured after 24 hrs by Western blot analysis relative to control. Type of data set: cell-based.
Data set [13] relates to von Hippel-Lindau disease tumor suppressor/Leucine-rich repeat serine/threonine-protein kinase 2 (Homo sapiens), Q5S007+P40337 [G2019S]. The data set is described as follows: PROTAC activity at VHL/LRRK2 G2019S mutant in human PBMC cells assessed as reduction of protein degradation measured after 24 hrs by Western blot analysis relative to control. In kind it is cell-based.

Data set [14] has as its target T2, Leucine-rich repeat serine/threonine-protein kinase 2. The data set is described as follows: Inhibition of GST20-tagged human LRRK2 using ERM as substrate measured after 90 mins in presence of ATP by lanthascreen TR-FRET assay.
Data set [15] has the same target. The data set is described as follows: Inhibition of GST20-tagged human LRRK2 by cell based assay.
Data set [16] has as its target T4, von Hippel-Lindau disease tumor suppressor/Leucine-rich repeat serine/threonine-protein kinase 2 (Homo sapiens, UniProt P40337+Q5S007, G2019S). The data set is described as follows: PROTAC activity at VHL/LRRK2 G2019S mutant in human PBMC cells assessed as reduction of protein degradation measured after 4 hrs by Western blot. Type of data set: cell-based.
Data set [17] concerns the target T5, von Hippel-Lindau disease tumor suppressor/Leucine-rich repeat serine/threonine-protein kinase 2 (Homo sapiens, UniProt P40337+Q5S007). The data set is described as follows: PROTAC activity at VHL/LRRK2 in human PBMC cells assessed as reduction of protein degradation measured after 4 hrs by Western blot. In kind it is cell-based.
Data set [18] relates to von Hippel-Lindau disease tumor suppressor/Leucine-rich repeat serine/threonine-protein kinase 2 (Homo sapiens), Q5S007+P40337 [G2019S]. The data set is described as follows: PROTAC activity at VHL/LRRK2 G2019S mutant in human PBMC cells assessed as reduction of protein degradation at 300 nM measured after 4 hrs by Western blot analysis relative to control. Type of data set: cell-based.

Data set [19] has as its target T3, von Hippel-Lindau disease tumor suppressor/Leucine-rich repeat serine/threonine-protein kinase 2 (Homo sapiens). The data set is described as follows: PROTAC activity at VHL/LRRK2 in human PBMC cells assessed as reduction of protein degradation at 300 nM measured after 4 hrs by Western blot analysis relative to control. In kind it is cell-based.
In data set [20] the target is Dual specificity protein kinase CLK2 (Homo sapiens, UniProt P49760). The data set is described as follows: Inhibition of CLK2 (unknown origin) by fluorescence based assay.
Sequence of Dual specificity protein kinase CLK2 (P49760 whole entry): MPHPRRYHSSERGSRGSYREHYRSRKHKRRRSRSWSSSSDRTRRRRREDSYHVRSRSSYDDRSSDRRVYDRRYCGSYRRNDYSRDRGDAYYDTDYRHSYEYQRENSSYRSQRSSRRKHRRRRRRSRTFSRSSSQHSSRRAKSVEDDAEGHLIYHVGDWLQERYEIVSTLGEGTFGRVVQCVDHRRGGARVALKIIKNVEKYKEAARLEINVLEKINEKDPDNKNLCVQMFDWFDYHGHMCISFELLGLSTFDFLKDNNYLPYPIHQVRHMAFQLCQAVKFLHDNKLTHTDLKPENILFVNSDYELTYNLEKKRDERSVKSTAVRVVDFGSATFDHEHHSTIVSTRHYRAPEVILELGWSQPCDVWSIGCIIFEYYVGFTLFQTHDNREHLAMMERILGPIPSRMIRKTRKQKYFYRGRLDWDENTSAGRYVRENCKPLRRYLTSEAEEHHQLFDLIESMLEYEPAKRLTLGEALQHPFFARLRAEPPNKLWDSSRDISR
The nature of data set [21]: Mean residence time in rat by LC-MS/MS analysis. Type of data set: ADME. The following applies: in vivo.
Data set [22] is described as follows: Oral bioavailability in rat by LC-MS/MS analysis. In kind it is ADME, organism-based. The following applies: in vivo.
The nature of data set [23]: Oral bioavailability in Beagle dog by LC-MS/MS analysis. Type of data set: ADME, organism-based, Canis lupus familiaris. The following applies: in vivo.
A short description of data set [24]: Mean residence time in Beagle dog by LC-MS/MS analysis. In kind it is ADME, Canis lupus familiaris. The following applies: in vivo.
Data set [25] has as its target Protein cereblon/Leucine-rich repeat serine/threonine-protein kinase 2 (Mus musculus, UniProt Q5S006+Q8C7D2). The data set is described as follows: PROTAC activity at CRBN/LRRK2 in mouse RAW264.7 cells assessed as reduction of protein degradation measured after 24 hrs by Western blot analysis. In kind it is cell-based.
Data set [26] addresses T2, Leucine-rich repeat serine/threonine-protein kinase 2. The data set is described as follows: Inhibition of LRRK2 (unknown origin).
Data set [27] is described as follows: Half life in mouse. In kind it is ADME, organism-based. The following applies: in vivo.
In data set [28] the target is Leucine-rich repeat serine/threonine-protein kinase 2 (Mus musculus, UniProt Q5S006). The data set is described as follows: Inhibition of mouse LRRK2.
In data set [29] the target is T4, von Hippel-Lindau disease tumor suppressor/Leucine-rich repeat serine/threonine-protein kinase 2. The data set is described as follows: PROTAC activity at VHL/LRRK2 G2019S mutant in human PBMC cells assessed as reduction of protein degradation measured after 24 hrs by Western blot. In kind it is cell-based.
Data set [30] in a line: Oral bioavailability in mouse at 30 mg/kg measured upto 8 hrs by LC-MS/MS analysis. In kind it is ADME, organism-based. The following applies: in vivo.
For data set [31], the target named is T5, von Hippel-Lindau disease tumor suppressor/Leucine-rich repeat serine/threonine-protein kinase 2. The data set is described as follows: PROTAC activity at VHL/LRRK2 in human PBMC cells assessed as reduction of protein degradation measured after 24 hrs by Western blot. Type of data set: cell-based.
The target of data set [32] is T2, Leucine-rich repeat serine/threonine-protein kinase 2. The data set is described as follows: Inhibition of human LRRK2 using LRRKtide as substrate measured after 1 hrs by caliper mobility shift assay.
Data set [33] has as its target T1, Leucine-rich repeat serine/threonine-protein kinase 2. The data set is described as follows: Inhibition of human LRRK2 G2019S mutant using LRRKtide as substrate measured after 1 hrs by caliper mobility shift assay.
Data set [34] shares this target. The data set is described as follows: Inhibition of GST-tagged human LRRK2 G2019S mutant expressed in Insect cell using ERM as substrate measured after 1 hrs.
The target of data set [35] is T2, Leucine-rich repeat serine/threonine-protein kinase 2. The data set is described as follows: Inhibition of GST-tagged recombinant human LRRK2 expressed in Insect cell using ERM as substrate measured after 1 hrs.
Data set [36] has the same target. The data set is described as follows: Inhibition of human full length LRRK2 using RLGRDKYKTLRQIRQ peptide as substrate by mass spectrometry analysis.

T1 sequence (Q5S007 whole entry G2019S): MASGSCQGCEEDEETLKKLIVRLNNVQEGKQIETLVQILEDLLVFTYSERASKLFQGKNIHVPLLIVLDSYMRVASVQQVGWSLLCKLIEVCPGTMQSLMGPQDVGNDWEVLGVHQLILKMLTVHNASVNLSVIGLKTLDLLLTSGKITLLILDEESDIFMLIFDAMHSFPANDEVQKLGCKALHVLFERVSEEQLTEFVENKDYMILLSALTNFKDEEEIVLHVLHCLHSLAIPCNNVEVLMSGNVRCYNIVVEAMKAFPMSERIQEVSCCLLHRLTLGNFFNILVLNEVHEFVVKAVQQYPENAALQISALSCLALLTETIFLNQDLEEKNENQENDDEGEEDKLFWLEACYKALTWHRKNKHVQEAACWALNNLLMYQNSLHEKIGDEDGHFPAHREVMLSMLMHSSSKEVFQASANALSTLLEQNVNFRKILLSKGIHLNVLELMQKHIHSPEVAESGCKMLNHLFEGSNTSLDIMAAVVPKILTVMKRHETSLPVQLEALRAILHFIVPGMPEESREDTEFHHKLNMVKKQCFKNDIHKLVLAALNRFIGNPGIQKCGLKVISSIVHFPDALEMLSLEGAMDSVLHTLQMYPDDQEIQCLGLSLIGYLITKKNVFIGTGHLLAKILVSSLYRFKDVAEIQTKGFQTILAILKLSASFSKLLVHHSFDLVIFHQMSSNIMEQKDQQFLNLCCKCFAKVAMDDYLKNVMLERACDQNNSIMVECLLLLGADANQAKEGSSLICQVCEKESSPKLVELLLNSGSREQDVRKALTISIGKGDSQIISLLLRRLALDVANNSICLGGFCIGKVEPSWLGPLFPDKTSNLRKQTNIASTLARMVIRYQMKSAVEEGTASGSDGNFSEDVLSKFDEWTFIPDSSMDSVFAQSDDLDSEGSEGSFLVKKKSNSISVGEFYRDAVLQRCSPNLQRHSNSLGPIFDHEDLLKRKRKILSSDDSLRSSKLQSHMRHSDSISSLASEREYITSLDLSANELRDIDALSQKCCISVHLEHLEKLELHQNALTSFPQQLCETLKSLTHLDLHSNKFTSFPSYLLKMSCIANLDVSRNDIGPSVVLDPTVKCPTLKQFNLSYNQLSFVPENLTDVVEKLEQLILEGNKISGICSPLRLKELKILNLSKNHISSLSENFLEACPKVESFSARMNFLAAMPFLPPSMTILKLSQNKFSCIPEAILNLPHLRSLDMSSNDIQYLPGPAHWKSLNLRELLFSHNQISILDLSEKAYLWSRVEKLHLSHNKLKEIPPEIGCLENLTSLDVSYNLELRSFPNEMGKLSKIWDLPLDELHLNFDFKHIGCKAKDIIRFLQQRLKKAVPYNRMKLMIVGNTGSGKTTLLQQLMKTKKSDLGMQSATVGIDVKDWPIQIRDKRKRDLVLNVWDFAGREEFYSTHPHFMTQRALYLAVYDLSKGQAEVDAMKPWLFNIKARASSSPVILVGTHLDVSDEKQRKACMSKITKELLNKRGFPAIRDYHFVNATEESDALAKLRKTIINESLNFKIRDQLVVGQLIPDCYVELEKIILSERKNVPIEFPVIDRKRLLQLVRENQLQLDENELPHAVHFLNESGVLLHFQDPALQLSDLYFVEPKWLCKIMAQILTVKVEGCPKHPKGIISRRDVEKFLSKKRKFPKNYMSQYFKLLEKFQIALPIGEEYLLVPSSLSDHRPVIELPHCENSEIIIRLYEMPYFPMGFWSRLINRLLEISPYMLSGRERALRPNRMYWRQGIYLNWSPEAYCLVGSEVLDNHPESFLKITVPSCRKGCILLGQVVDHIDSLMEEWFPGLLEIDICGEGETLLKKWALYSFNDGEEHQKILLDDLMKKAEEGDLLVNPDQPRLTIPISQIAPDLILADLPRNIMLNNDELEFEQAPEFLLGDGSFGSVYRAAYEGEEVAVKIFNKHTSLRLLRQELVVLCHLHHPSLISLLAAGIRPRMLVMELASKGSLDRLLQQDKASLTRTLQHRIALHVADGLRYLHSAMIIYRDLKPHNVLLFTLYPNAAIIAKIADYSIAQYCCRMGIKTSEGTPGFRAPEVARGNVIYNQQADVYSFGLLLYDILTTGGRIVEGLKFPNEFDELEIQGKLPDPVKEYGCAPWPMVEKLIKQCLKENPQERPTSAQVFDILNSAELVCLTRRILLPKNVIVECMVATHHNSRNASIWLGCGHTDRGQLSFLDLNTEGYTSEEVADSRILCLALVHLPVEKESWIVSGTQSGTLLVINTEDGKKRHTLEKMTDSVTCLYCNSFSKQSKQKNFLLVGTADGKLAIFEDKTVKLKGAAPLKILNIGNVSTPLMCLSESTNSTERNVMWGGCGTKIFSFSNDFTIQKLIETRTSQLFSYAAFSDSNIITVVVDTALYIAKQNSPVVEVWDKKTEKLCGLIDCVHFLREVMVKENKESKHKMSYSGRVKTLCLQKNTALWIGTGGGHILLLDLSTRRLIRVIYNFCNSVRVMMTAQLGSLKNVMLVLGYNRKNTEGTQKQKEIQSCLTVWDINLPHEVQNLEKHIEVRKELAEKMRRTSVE
T4 sequence (P40337 whole entry, stated change not applied): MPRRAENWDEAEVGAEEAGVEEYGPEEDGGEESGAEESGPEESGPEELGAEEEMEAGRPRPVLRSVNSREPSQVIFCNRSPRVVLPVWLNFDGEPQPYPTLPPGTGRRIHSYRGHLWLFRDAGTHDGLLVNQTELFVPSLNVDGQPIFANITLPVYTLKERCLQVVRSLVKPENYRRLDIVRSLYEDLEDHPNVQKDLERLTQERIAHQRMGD
T4 sequence (Q5S007 whole entry G2019S, stated change not applied): as the sequence (Q5S007 whole entry G2019S) above
T3 sequence (P40337 whole entry, looked up): as the sequence (P40337 whole entry, stated change not applied) above
T3 sequence (Q5S007 whole entry, looked up): as the sequence (Q5S007 whole entry G2019S) above, with S2019G counted along it
T2 sequence (Q5S007 whole entry): as the sequence (Q5S007 whole entry G2019S) above, with S2019G counted along it
T5 sequence (Q5S007 whole entry): as the sequence (Q5S007 whole entry G2019S) above, with S2019G counted along it
T5 sequence (P40337 whole entry): as the sequence (P40337 whole entry, stated change not applied) above

Usually IC50 stands for the concentration needed to halve the response being measured. As to `CCC(Sc1ccc2nnc(-c3cccs3)n2n1)C(=O)N1CCCCC1` (stereo not given), the IC50 in data set [1] is 75 nM; in data set [2], 146 nM.

One may read the half-life as how long it takes for the measured level to halve. A higher half-life goes with slow loss. Regarding `COc1cc(N2CCOCC2)ccc1Nc1ncc(F)c(Nc2ccccc2NS(C)(=O)=O)n1`, the IC50 in data set [3] came out at 4.76 nM; in data set [4], 6.87 nM. In [5], this molecule showed a half-life of 1 h. Also, the bioavailability in [6] stood at 133%.

In the case of `CCNc1nc(Nc2cc(F)c(C(=O)N3CCOCC3)cc2OC)ncc1C(F)(F)F`, the half-life in data set [7] is 3.1 h. In data set [8], the bioavailability is 40%. For the same molecule, the IC50 in data set [9] stood at 1 nM.

What is called Emax is the size of the effect at its maximum, as opposed to the concentration needed. Take `CNc1nc(Nc2ccc(C(=O)N3CCN(CCOCCOCCSC(C)(C)[C@H](NC(=O)C4(F)CC4)C(=O)N4C[C@H](O)C[C@H]4C(=O)NCc4ccc(-c5scnc5C)cc4)CC3)cc2OC)ncc1Cl`: the figures for the T1/2 in data set [10] and in data set [11] were 1.4 h and 5.1 h, respectively. In addition, the figures for the maximal response (Emax) in data set [12] and in data set [13] were 51% and 58%, respectively.

On to `CC(C)(O)[C@@H]1CCN(c2cnc(C(F)(F)F)c(NC(=O)c3cccc(-c4cnn(CC(F)(F)F)c4)n3)c2)C1`, for which the IC50 was 10 nM in [14] and 0.7 nM in [15].

As usually defined, the EC50 is the concentration at which the effect is half-maximal. In the case of `CNc1nc(Nc2ccc(C(=O)N3CCN(C[C@H]4CC[C@@H](CSC(C)(C)[C@H](NC(=O)C5(F)CC5)C(=O)N5C[C@H](O)C[C@H]5C(=O)NCc5ccc(-c6scnc6C)cc5)CC4)CC3)cc2OC)ncc1Cl`, the EC50 amounted to 7 nM in [16] and 32 nM in data set [17]. Further, the figures for the T1/2 in data set [10] and in [11] were 1.4 h and 2.7 h, respectively. For the same molecule, the maximal response (Emax) in data set [18] is 90%; in data set [19] it was 59%.

Take `Cn1cc(-c2cccc(C(=O)Nc3cc(N4CC[C@@H](C(C)(C)O)C4)cnc3C(F)(F)F)n2)cn1`: the IC50 in data set [14] was found to be 17 nM; in data set [15] it was 21 nM.

The term MRT denotes the average time that molecules of a dose stay in the body. `Cn1cc(-c2cccc(C(=O)Nc3cc(N4CCC(C(C)(C)O)C4)ncc3C(F)(F)F)n2)cn1` (stereo not given): the IC50 in [20] was 63 nM; in [14], 1 nM; in [15], 2.5 nM. Further, the MRT in data set [21] was determined as 5.2 h; in [24] it was 3.6 h. In addition, the bioavailability was 16% in data set [22] and 43% in data set [23].

In the case of `CCNc1nc(Nc2cc(F)c(C(=O)NCCCCNc3cccc4c3C(=O)N(C3CCC(=O)NC3=O)C4=O)cc2OC)ncc1C(F)(F)F` (stereo not given), the IC50 in [25] is 14.7 nM.

Regarding `CC(C)Nc1nc(Nc2ccc(C(=O)NCc3ccccc3)cc2)nc2ccsc12`, the IC50 was found to be 14 nM in data set [9] and 30 nM in [26].

Turning to `COc1cc(C(=O)N2CCC(N3CCN(C)CC3)CC2)ccc1Nc1ncc2c(n1)N(C)c1ccccc1C(=O)N2C`, in data set [27], the half-life is 4.5 h.

As to `CCOc1cc(N2CCOCC2)ccc1Nc1ncc(F)c(Nc2ccccc2NS(C)(=O)=O)n1`, the IC50 in data set [28] was 190 nM.

For the molecule `C=CC(=O)Nc1cccc(Oc2nc(Nc3ccc(N4CCN(C)CC4)c(F)c3)nc3[nH]ccc23)c1` [ABIVERTINIB], the IC50 came out at 410 nM in data set [9] and 177 nM in [26].

In the case of `CNc1nc(Nc2ccc(C(=O)N3CCN(C[C@H]4CC[C@H](CSC(C)(C)[C@H](NC(=O)C5(F)CC5)C(=O)N5C[C@H](O)C[C@H]5C(=O)NCc5ccc(-c6scnc6C)cc5)CC4)CC3)cc2OC)ncc1Cl`, the IC50 is 24.3 nM in [29] and 12.4 nM in [31]. Also, the concentration giving a half-maximal response (EC50) in data set [16] came to 14 nM; in [17], 32 nM. Moreover, the bioavailability in data set [30] stood at 15%. In addition, the T1/2 in data set [10] turned out to be 0.6 h; in data set [11], 1.2 h. Besides, the values for the Emax in [18] and in [19] were 81% and 82%, respectively.

Regarding `Cn1cc(-c2nc(C(=O)Nc3cnn(C4CCC4)c3)cs2)cn1`, the half-inhibitory concentration (IC50) amounted to 14 nM in data set [14] and 271 nM in data set [15].

For `CNc1nc(N/N=C/c2cccc3ccccc23)nc(Nc2cccc(C(F)(F)F)c2)n1`, the IC50 was determined as 424 nM in data set [32] and 378 nM in data set [33].

Turning to `Cn1cc(-c2c[nH]c3ncnc(N4CCOCC4)c23)cc1C#N`, the IC50 in data set [34] amounted to 6.37 nM; in data set [35] it was 13 nM.

In the case of `COc1cc(N2CCOCC2)ccc1Nc1ncc(Cl)c(Nc2ccccc2NS(C)(=O)=O)n1`, the values for the IC50 in data set [3] and in data set [4] were 1.28 nM and 1.85 nM, respectively.

Turning to `Cc1c2c(nn1C1CCOCC1)OCCCNc1nc(ncc1Cl)N2`, the IC50 in data set [36] was at most 100 nM.

Source of the values: ChEMBL document CHEMBL5370553, “Small-molecule LRRK2 inhibitors for PD therapy: Current achievements and future perspectives” (Eur J Med Chem, 2023).
